In publication PMC7613998, “Development of selective inhibitors of phosphatidylinositol 3-kinase C2α” (Nature Chemical Biology, 2022):

Tests used:
Experiment in all cases: biochemical
Set-up in all cases: SelectScreen Z'-LYTE purified kinase panel, per cent inhibition, mean of two points
PRKCA (PKC alpha) = PRKCA (PKC alpha) (Homo sapiens, UniProt P17252); conditions: (μM)=Km app
PAK2 (PAK65) = PAK2 (PAK65) (Homo sapiens, UniProt Q13177); conditions: (μM)=Km app
CSF1R (FMS) = CSF1R (FMS) (Homo sapiens, UniProt P07333); conditions: (μM)=Km app
PAK4 = PAK4 (Homo sapiens, UniProt O96013); conditions: (μM)=Km app
MET (cMet) = MET (cMet) (Homo sapiens, UniProt P08581); conditions: (μM)=Km app
JAK1 = JAK1 (Homo sapiens, UniProt P23458); conditions: (μM)=Km app
ERBB2 (HER2) = ERBB2 (HER2) (Homo sapiens, UniProt P04626); conditions: (μM)=Km app
SRC = SRC (Homo sapiens, UniProt P12931); conditions: (μM)=Km app
MAP3K8 (COT) = MAP3K8 (COT) (Homo sapiens, UniProt P41279); conditions: (μM)=100
MAPKAPK5 (PRAK) = target: T1, MAPKAPK5 (PRAK) (Homo sapiens, UniProt Q8IW41); conditions: (μM)=Km app
T1 sequence (Q8IW41 1-473): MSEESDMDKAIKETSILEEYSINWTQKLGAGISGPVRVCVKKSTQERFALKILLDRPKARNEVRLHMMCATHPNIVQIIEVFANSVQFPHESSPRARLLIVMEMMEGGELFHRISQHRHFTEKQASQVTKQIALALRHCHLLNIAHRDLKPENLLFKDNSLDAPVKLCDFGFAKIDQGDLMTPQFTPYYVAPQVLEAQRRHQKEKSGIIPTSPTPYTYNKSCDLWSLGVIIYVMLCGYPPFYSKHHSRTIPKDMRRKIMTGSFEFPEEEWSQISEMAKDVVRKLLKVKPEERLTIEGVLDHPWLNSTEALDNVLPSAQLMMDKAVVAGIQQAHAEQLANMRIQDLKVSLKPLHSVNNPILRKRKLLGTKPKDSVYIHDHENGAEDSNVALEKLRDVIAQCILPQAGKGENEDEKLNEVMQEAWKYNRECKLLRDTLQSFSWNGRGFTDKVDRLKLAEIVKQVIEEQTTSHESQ

JAK3 = target: T2, JAK3 (Homo sapiens, UniProt P52333); conditions: (μM)=Km app
T2 sequence (P52333 1-1124): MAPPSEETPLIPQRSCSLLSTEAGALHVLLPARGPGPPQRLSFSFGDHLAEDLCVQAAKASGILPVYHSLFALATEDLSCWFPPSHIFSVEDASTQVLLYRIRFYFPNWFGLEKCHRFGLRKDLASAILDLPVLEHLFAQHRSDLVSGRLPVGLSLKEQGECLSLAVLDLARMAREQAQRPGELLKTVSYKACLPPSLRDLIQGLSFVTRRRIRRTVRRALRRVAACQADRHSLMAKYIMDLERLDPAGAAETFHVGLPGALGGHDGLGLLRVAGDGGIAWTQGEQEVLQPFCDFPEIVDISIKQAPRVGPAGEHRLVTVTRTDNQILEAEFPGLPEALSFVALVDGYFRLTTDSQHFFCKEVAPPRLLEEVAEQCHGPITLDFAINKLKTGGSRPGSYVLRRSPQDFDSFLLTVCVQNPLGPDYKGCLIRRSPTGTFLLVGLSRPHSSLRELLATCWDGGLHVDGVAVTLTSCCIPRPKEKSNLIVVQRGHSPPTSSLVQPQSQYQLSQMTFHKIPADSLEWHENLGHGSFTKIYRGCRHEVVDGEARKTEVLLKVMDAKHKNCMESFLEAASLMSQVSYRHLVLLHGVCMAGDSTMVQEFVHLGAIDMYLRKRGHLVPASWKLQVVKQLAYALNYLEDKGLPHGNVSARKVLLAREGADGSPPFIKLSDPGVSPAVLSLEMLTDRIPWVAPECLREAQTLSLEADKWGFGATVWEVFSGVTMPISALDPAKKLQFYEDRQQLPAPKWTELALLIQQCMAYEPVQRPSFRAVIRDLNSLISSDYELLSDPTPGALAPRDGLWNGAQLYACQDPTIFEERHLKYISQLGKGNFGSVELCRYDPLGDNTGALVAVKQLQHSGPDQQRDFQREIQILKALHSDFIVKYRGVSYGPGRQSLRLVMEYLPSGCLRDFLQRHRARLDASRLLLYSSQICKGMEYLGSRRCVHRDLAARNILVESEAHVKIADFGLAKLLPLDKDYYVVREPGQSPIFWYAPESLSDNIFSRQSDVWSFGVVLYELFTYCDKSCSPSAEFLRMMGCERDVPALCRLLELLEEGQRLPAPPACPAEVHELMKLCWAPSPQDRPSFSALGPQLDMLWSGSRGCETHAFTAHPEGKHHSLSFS

Chain of CSF1R (FMS) (P07333 whole entry): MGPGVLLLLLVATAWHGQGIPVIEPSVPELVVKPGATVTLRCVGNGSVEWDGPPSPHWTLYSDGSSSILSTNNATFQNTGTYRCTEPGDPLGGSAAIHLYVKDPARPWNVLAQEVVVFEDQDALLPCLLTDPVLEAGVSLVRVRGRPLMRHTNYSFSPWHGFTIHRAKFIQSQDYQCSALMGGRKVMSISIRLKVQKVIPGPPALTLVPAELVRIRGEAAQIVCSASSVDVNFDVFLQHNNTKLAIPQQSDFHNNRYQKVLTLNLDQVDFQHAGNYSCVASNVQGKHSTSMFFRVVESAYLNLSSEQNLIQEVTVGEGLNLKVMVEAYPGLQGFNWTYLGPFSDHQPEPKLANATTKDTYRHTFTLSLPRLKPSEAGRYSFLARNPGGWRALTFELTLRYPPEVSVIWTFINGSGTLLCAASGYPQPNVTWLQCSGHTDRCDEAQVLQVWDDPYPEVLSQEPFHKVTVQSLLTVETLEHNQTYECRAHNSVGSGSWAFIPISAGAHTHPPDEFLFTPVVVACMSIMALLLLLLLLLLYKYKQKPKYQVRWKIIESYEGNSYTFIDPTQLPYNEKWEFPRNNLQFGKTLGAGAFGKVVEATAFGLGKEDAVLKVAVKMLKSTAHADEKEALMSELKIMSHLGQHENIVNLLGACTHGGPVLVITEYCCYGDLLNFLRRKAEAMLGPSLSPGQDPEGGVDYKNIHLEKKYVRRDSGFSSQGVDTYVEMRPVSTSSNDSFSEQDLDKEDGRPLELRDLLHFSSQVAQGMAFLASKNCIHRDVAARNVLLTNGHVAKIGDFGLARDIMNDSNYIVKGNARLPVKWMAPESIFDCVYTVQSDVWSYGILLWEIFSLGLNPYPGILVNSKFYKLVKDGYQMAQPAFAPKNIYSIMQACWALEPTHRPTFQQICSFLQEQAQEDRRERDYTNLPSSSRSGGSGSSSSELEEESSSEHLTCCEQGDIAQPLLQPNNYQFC
Chain of PAK2 (PAK65) (Q13177 whole entry): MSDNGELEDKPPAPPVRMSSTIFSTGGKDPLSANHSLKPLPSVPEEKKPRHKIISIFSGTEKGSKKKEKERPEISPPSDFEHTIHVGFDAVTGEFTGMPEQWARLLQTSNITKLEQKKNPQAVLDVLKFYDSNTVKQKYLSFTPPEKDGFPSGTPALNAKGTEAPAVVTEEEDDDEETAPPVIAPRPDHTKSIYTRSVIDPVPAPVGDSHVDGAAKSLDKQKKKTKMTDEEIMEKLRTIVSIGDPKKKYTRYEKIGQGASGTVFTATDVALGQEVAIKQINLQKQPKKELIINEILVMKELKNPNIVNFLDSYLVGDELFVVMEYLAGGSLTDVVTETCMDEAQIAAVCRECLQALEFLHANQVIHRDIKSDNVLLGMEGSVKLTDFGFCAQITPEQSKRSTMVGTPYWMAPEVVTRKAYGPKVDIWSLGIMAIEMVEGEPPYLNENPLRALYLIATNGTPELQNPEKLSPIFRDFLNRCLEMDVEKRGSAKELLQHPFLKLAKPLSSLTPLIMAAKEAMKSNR
Chain of MET (cMet) (P08581 whole entry): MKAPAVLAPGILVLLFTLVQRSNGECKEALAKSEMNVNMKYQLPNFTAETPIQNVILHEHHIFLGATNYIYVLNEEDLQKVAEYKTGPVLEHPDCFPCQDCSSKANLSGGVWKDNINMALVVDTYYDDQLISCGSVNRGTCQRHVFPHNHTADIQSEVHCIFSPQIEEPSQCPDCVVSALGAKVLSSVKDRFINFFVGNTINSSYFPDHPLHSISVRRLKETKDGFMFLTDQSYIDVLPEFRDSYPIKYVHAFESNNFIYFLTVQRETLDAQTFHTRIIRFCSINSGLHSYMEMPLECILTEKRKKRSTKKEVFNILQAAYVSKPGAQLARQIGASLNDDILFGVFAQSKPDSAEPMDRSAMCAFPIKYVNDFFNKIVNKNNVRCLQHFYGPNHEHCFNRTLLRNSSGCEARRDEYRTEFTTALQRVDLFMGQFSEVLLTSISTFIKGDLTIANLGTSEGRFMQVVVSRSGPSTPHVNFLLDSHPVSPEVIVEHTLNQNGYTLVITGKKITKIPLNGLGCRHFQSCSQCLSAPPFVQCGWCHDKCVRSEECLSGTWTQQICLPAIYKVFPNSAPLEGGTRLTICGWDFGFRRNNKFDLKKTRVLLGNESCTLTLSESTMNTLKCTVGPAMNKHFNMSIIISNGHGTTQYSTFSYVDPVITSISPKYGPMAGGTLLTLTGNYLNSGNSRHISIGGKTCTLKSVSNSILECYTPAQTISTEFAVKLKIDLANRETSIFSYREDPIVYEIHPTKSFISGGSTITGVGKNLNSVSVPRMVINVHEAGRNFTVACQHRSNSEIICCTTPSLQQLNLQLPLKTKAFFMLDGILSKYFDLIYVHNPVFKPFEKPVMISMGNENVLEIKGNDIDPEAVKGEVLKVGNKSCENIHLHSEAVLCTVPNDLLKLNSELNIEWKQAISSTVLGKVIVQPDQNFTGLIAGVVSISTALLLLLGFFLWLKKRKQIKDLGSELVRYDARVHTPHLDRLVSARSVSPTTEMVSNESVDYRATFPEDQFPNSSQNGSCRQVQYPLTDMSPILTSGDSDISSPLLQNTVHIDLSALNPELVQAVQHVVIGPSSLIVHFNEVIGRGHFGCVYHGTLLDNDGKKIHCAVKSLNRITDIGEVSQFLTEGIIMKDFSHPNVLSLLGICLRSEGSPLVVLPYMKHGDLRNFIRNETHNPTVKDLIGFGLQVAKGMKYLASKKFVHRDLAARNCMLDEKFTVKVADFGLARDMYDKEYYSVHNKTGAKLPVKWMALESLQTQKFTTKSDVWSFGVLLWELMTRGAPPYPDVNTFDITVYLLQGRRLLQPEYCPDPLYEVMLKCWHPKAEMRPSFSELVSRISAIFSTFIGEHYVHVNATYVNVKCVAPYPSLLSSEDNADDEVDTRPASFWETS
Chain of MAP3K8 (COT) (P41279 whole entry): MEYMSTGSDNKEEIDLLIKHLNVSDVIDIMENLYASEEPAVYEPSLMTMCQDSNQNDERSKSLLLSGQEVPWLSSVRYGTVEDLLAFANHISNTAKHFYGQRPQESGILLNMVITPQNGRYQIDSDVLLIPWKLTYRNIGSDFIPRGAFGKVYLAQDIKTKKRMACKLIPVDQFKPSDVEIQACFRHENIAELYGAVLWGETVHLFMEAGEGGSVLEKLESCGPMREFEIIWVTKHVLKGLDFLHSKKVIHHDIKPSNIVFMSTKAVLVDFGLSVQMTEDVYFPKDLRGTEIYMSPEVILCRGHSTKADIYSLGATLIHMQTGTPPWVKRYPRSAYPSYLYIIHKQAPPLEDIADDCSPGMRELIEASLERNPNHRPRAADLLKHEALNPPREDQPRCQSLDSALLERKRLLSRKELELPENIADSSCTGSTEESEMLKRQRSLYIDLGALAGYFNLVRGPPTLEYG
Chain of PAK4 (O96013 whole entry): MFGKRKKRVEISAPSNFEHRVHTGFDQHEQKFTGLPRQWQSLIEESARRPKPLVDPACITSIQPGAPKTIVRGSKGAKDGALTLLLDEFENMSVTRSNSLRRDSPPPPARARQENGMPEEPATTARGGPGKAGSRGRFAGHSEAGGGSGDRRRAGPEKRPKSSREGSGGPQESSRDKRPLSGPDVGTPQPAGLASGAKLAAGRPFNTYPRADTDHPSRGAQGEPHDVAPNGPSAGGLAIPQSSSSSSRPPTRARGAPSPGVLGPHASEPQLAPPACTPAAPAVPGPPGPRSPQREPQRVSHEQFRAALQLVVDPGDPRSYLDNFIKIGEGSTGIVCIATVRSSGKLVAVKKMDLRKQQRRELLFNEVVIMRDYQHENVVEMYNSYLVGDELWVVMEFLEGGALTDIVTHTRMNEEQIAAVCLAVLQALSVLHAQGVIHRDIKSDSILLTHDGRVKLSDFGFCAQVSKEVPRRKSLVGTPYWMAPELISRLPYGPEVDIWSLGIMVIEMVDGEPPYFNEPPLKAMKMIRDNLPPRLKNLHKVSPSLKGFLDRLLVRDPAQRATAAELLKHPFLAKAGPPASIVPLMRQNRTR

SMILES | inhibition at 1 µM (PRKCA (PKC alpha)) [%] | inhibition at 3 µM (PRKCA (PKC alpha)) [%] | inhibition at 10 µM (PRKCA (PKC alpha)) [%] | inhibition at 1 µM (PAK2 (PAK65)) [%] | inhibition at 3 µM (PAK2 (PAK65)) [%] | inhibition at 10 µM (PAK2 (PAK65)) [%] | inhibition at 1 µM (CSF1R (FMS)) [%] | inhibition at 3 µM (CSF1R (FMS)) [%] | inhibition at 10 µM (CSF1R (FMS)) [%] | inhibition at 1 µM (PAK4) [%] | inhibition at 3 µM (PAK4) [%] | inhibition at 10 µM (PAK4) [%] | inhibition at 1 µM (MET (cMet)) [%] | inhibition at 3 µM (MET (cMet)) [%] | inhibition at 10 µM (MET (cMet)) [%] | inhibition at 1 µM (JAK1) [%] | inhibition at 3 µM (JAK1) [%] | inhibition at 10 µM (JAK1) [%] | inhibition at 1 µM (ERBB2 (HER2)) [%] | inhibition at 3 µM (ERBB2 (HER2)) [%] | other results
O=C(CSc1nc2nccnc2c(=O)n1CCc1ccccc1)Nc1nccs1 [compound 1, PITCOIN1] | 6.59 | 10 | 0.714 | 2.87 | -3.37 | 3.3 | 12.1 | 7.54 | 7.66 | 9.59 | 9 | 4.11 | 4.52 | -1.8 | 1.23 | 6.58 | 2.72 | 0.0941 | -9.9 | -2.96 | inhibition at 10 µM (ERBB2 (HER2)): -11.6%; inhibition at 1 µM (SRC): 8.59%; inhibition at 3 µM (SRC): 3.7%; inhibition at 10 µM (SRC): 9.6%; inhibition at 1 µM (MAP3K8 (COT)): 1.68%; inhibition at 3 µM (MAP3K8 (COT)): -2.27%; inhibition at 10 µM (MAP3K8 (COT)): 4.32%; inhibition at 1 µM (MAPKAPK5 (PRAK)): -1.38%; inhibition at 3 µM (MAPKAPK5 (PRAK)): 1.26%; inhibition at 10 µM (MAPKAPK5 (PRAK)): 0.194%; inhibition at 1 µM (JAK3): -0.818%; inhibition at 3 µM (JAK3): -2.14%; inhibition at 10 µM (JAK3): 0.865%
CS(=O)(=O)Nc1cccc(-c2csc(NC(=O)CSc3nc4nccnc4c(=O)n3CCc3ccccc3)n2)c1 [compound 3, PITCOIN3] | 0.445 | 18.8 | 15.2 | 4.79 | 5.93 | 0.538 | 10.1 | 14 | 13.3 | 4.8 | 3.9 | 2.41 | 4.73 | 8.1 | -2.17 | 2.76 | 4.25 | 0.516 | -1.62 | -3.07 | inhibition at 10 µM (ERBB2 (HER2)): -10.7%; inhibition at 1 µM (SRC): 9.83%; inhibition at 3 µM (SRC): 12.2%; inhibition at 10 µM (SRC): 7.36%; inhibition at 1 µM (MAP3K8 (COT)): 2.37%; inhibition at 3 µM (MAP3K8 (COT)): 11.4%; inhibition at 10 µM (MAP3K8 (COT)): 4.89%; inhibition at 1 µM (MAPKAPK5 (PRAK)): -3.78%; inhibition at 3 µM (MAPKAPK5 (PRAK)): 2.14%; inhibition at 10 µM (MAPKAPK5 (PRAK)): -2.49%; inhibition at 1 µM (JAK3): 1.86%; inhibition at 3 µM (JAK3): -1.56%; inhibition at 10 µM (JAK3): -1.58%
